{
  "source": "paper PMC12203428",
  "about": "“Discovery of Clonixeril as a Sub-Femtomolar Modulator of the Human STING Receptor” (ACS Central Science, 2025)",
  "test_system": "IFN-β expression in HEK293 cells",
  "experiment": "HEK293 real-time qPCR for IFN-β",
  "experimental": "IFN-β expression levels were measured using real-time qPCR.\nHEK293 cells were seeded at 700,000 cells per 60 mm plate confluency and treated 36 h later.",
  "data": [
    {"smiles": "Cc1c(Cl)cccc1Nc1ncccc1C(=O)OCC(O)CO", "note": "(centres unmarked) [CXL, clonixeril]", "values": [
      {"measurement": "Inhibition of IFN-b production", "setting": "1 fM, reviewer's reading of Figure 3D", "result": "about 75%"},
      {"measurement": "Diminution of 2′,3′-cGAMP-induced expression of IFN-β", "setting": "all CXL treatment groups 1 fM-1 nM, 1 h before 4 μM 2′,3′-cGAMP", "result": "more than 50%"}
    ]}
  ]
}
